Tested on: Pseudomonas aeruginosa strain PAO1
Assay: Diffusion of antibiotic molecules through the membrane of PAO1 nanoculture capsules
Assay type: cell-based
Experimental: FIGS. 9A-9C provide representative brightfield images of the presently disclosed nanoculture capsules. Pseudomonas aeruginosa PAO1 strain was used as the bacterial inoculum for the inner phase of the capsules. Antibiotics, including tobramycin and tetracycline, were introduced 24 hours after encapsulation. (9A) Untreated PAO1 nanoculture after 24 hours. (9B) PAO1 nanoculture treated with 50 ug/ml tobramycin. (9C) PAO1 nanoculture treated with 50 ug/ml tetracycline.
The presently disclosed polymer was used to investigate the diffusion of antibiotic molecules through the membrane. Pseudomonas aeruginosa strain PAO1 was used as the bacterial inoculum for the inner phase of the nanoculture capsules. Antibiotics, including tobramycin and tetracycline, to which the PAO1 were sensitive, were introduced 24 hours after encapsulation. A 24-hour incubation period allowed for the confluent growth of PAO1. […] Microcapsules used in FIGS. 9A-9C were generated by using (H:V)=(0.6:1) with 3 ppm Pt catalyst and 0% DMAA. The generated microcapsules were heat treated for 5 minutes at 70° C. immediately after encapsulation. Following heat treatment, capsules were incubated at 37° C. for 24 hours.

SMILES: CN(C)[C@@H]1C(O)=C(C(N)=O)C(=O)[C@@]2(O)C(O)=C3C(=O)c4c(O)cccc4[C@@](C)(O)[C@H]3C[C@@H]12 [tetracycline]
- Ability to permeate and diffuse through the membrane (inferred from PAO1 killing at 50 ug/ml, membrane (H:V)=(0.6:1), 3 ppm Pt, 0% DMAA): able to diffuse through the membrane

SMILES: NC[C@H]1O[C@H](O[C@H]2[C@H](O)[C@@H](O[C@H]3O[C@H](CO)[C@@H](O)[C@H](N)[C@H]3O)[C@H](N)C[C@@H]2N)[C@H](N)C[C@@H]1O [tobramycin]
- PAO1 cells in nanoculture capsules after antibiotic treatment (50 ug/ml antibiotic introduced 24 hours after encapsulation, capsules (H:V)=(0.6:1), 3 ppm Pt catalyst, 0% DMAA, heat treated 5 minutes at 70° C.): persisted
- Ability to permeate and diffuse through the membrane (not told): unable to permeate and diffuse through the membrane

Reference: patent US11534408B2, “Microcapsules and methods of using the same” (priority 2018, dated 2022)
